Measured values as given in patent US5616320A, “Use of antibiotics 10381b to promote growth” (The Upjohn Company, priority 1994, dated 1997).

Key:
[1] = Toxicity; parameters: species or system mammals
[2] = test system: yeasts and fungi; test: Growth inhibition (statement in words); format: cell-based
[3] = test system: Serratia marcescens; test: Antibacterial spectrum, disc zone of inhibition; format: cell-based; settings: UC 6888; 1/4 inch discs, 20 μl
Procedure: (§1) ^1 Assays marked * used 1/4 inch (6.35 mm) discs and 20 μl
(§2) All other assays used 1/2 inch (12.7 mm) discs and 80 μl samples.
(§3) h = hazy; vl = very light; tr = trace. Assay procedures are described in
(§4) Hanka, L. J., M. R. Burch and W. T. Sokolski. Psicofuranine. IV.
(§5) Microbiological assay. Antibiot. and Chemoth. 9:432-435 (1959).

[4] = test system: Rhodopseudomonas sphaeroides; test: Antibacterial spectrum, disc zone of inhibition; format: cell-based; settings: UC 3238; 1/2 inch discs, 80 μl
Procedure: as §1, §2, §3, §4, §5

[5] = test system: Candida albicans; test: Antibacterial spectrum, disc zone of inhibition; format: cell-based; settings: UC 1392
Procedure: as §1, §2, §3, §4, §5

[6] = test system: Pasteurella hemolytica; test: Antibacterial spectrum, disc zone of inhibition; format: cell-based; settings: UC 6531; 1/2 inch discs, 80 μl
Procedure: as §1, §2, §3, §4, §5

[7] = test system: Streptococcus pyogenes; test: Antibacterial spectrum, disc zone of inhibition; format: cell-based; settings: UC 152
Procedure: as §1, §2, §3, §4, §5

[8] = test system: Pseudomonas aeruginosa; test: Antibacterial spectrum, disc zone of inhibition; format: cell-based; settings: UC 95; 1/2 inch discs, 80 μl
Procedure: as §1, §2, §3, §4, §5

[9] = test system: Bordetella bronchiseptica; test: Antibacterial spectrum, disc zone of inhibition; format: cell-based; settings: UC 6481; 1/2 inch discs, 80 μl
Procedure: as §1, §2, §3, §4, §5

[10] = test system: Micrococcus luteus; test: Antibacterial spectrum, disc zone of inhibition; format: cell-based; settings: 1/2 inch discs, 80 μl
Procedure: as §1, §2, §3, §4, §5

[11] = test system: Mycobacterium avium; test: Antibacterial spectrum, disc zone of inhibition; format: cell-based; settings: UC 159; 1/2 inch discs, 80 μl
Procedure: as §1, §2, §3, §4, §5

[12] = test system: Klebsiella pneumoniae; test: Antibacterial spectrum, disc zone of inhibition; format: cell-based; settings: UC 57; 1/2 inch discs, 80 μl
Procedure: as §1, §2, §3, §4, §5

[13] = test system: Streptococcus faecalis; test: Antibacterial spectrum, disc zone of inhibition; format: cell-based
Procedure: as §1, §2, §3, §4, §5

[14] = test system: Bacillus subtilis; test: Antibacterial spectrum, disc zone of inhibition; format: cell-based; settings: UC 564; 1/2 inch discs, 80 μl
Procedure: as §1, §2, §3, §4, §5

[15] = test system: Salmonella schottmuelleri; test: Antibacterial spectrum, disc zone of inhibition; format: cell-based; settings: UC 126; 1/2 inch discs, 80 μl
Procedure: as §1, §2, §3, §4, §5

[16] = test system: Penicillium oxalicum; test: Antibacterial spectrum, disc zone of inhibition; format: cell-based; settings: UC 1268
Procedure: as §1, §2, §3, §4, §5

[17] = test system: Saccharomyces cerevisiae; test: Antibacterial spectrum, disc zone of inhibition; format: cell-based; settings: UC 1342
Procedure: as §1, §2, §3, §4, §5

[18] = test system: Hemophilus influenzae; test: Antibacterial spectrum, disc zone of inhibition; format: cell-based; settings: UC 6483; 1/4 inch discs, 20 μl
Procedure: as §1, §2, §3, §4, §5

[19] = test system: Clostridium perfrigens; test: Antibacterial spectrum, disc zone of inhibition; format: cell-based; settings: UC 6509; 1/2 inch discs, 80 μl
Procedure: as §1, §2, §3, §4, §5

[20] = test system: Proteus vulgaris; test: Antibacterial spectrum, disc zone of inhibition; format: cell-based; settings: UC 93; 1/2 inch discs, 80 μl
Procedure: as §1, §2, §3, §4, §5

[21] = test system: Bacteroides fragilis; test: Antibacterial spectrum, disc zone of inhibition; format: cell-based; settings: UC 6513; 1/2 inch discs, 80 μl
Procedure: as §1, §2, §3, §4, §5

[22] = test system: Staphylococcus aureus; test: Antibacterial spectrum, disc zone of inhibition; format: cell-based
Procedure: as §1, §2, §3, §4, §5

[23] = test system: Escherichia coli; test: Antibacterial spectrum, disc zone of inhibition; format: cell-based; settings: UC 51; 1/2 inch discs, 80 μl
Procedure: as §1, §2, §3, §4, §5

[24] = test system: Gram-positive bacteria, yeasts, and fungi; test: In vitro antimicrobial activity (statement in words); format: cell-based
[25] = test system: Streptococcus pneumoniae; test: Antibacterial spectrum, disc zone of inhibition; format: cell-based; parameters: key: hazy; vl: very light; trace; settings: UC 9207; 1/4 inch discs, 20 μl
Procedure: as §1, §2, §3, §4, §5

[26] = test system: Staphylococcus epidermidis; test: Antibacterial spectrum, disc zone of inhibition; format: cell-based; parameters: key: hazy; vl: very light; trace; settings: UC 719; 1/4 inch discs, 20 μl
Procedure: as §1, §2, §3, §4, §5

[27] = test system: Neisseria gonorrhoeae; test: Antibacterial spectrum, disc zone of inhibition; format: cell-based; parameters: key: hazy; vl: very light; trace; settings: UC 3065; 1/4 inch discs, 20 μl
Procedure: as §1, §2, §3, §4, §5

[28] = Solubility; format: physicochemical

CC(CCN(C)C(=N)N)C(N)C(=O)NC1C=CC(n2ccc(N)nc2=O)OC1C(=O)O (centres unmarked) [Antibiotic 10381a1]
toxicity relative to blasticidin ([1]; compared with blasticidin): less toxicity than blasticidin | toxicity ([1]; in mammals / versus prior art antibiotics): greatly reduced toxicity | growth inhibitory effect [2]: especially strong growth inhibitory effect | Zone of Inhibition [3]: 0 mm | Zone of Inhibition [4]: 33 mm | activity [5]: active | Zone of Inhibition ([5]; 1/4 inch discs, 20 μl): 12 mm | Zone of Inhibition [6]: 0 mm | activity [7]: active | Zone of Inhibition ([7]; 1/2 inch discs, 80 μl): 25 mm | Zone of Inhibition [8]: 0 mm | Zone of Inhibition [9]: 0 mm | Zone of Inhibition ([10]; UC 130): 32 mm | Zone of Inhibition ([10]; UC 3383): 32 mm | Zone of Inhibition [11]: 17 mm | Zone of Inhibition [12]: 0 mm | Zone of Inhibition ([13]; UC 221, 1/4 inch discs, 20 μl): 10 vl | activity ([13]; UC 694): active | Zone of Inhibition [14]: 0 mm | Zone of Inhibition [15]: 0 mm | activity [16]: active | Zone of Inhibition ([16]; 1/2 inch discs, 80 μl): 36 mm | activity [17]: active | Zone of Inhibition ([17]; 1/2 inch discs, 80 μl): 31 mm | Zone of Inhibition [18]: 10 mm | Zone of Inhibition [19]: 18 mm | Zone of Inhibition [20]: 0 mm | Zone of Inhibition [21]: 21 mm | Zone of Inhibition ([22]; UC 80, 1/2 inch discs, 80 μl): 16 h | Zone of Inhibition ([22]; UC 3665, 1/2 inch discs, 80 μl): 0 mm | Zone of Inhibition ([22]; UC 6685, 1/4 inch discs, 20 μl): 0 mm | Zone of Inhibition [23]: 0 mm | antimicrobial activity [24]: broad spectrum antibiotic properties | Zone of Inhibition [25]: tr | Zone of Inhibition [26]: tr | Zone of Inhibition [27]: tr | Solubility ([28]; acetone, ethyl acetate, ether and chlorinated or saturated hydrocarbon solvents): Insoluble | Solubility ([28]; water and lower alcohols): Soluble
